Experiment [1] addresses T1, rat α1β2 GABAARs (Rattus norvegicus, UniProt P62813+P63138).
T1 construct: expressed in transfected cells; host or cells: HEK293
The experiment is described as follows: Whole-cell patch clamp of GABA-evoked currents, HEK293 cells expressing α1β2. The class given is cell-based. The source says: (§1) Co-expression of the α and β subunits is the minimum requirement for a functional recombinant GABAAR expressed in a heterologous cell line such as HEK293, while co-expression of the α, β and γ subunits is required for the recombinant receptor with a full pharmacological profile.[2] We therefore transiently expressed either rat α1β2 or α1β2γ2 subunits in HEK293 cells.
HEK293 cells were transiently transfected with rat GABAAR α1/β2 (a–e) or α1/β2/γ2 (f) subunits. Whole-cell voltage-clamp recordings were performed with a chloride-based intracellular recording solution at a holding membrane potential of −60 mV.
(§2) HEK293 cells were cultured in DMEM (Invitrogen) supplemented with 10% fetal bovine serum. Cells were grown to 40–60% confluence and transiently transfected using Lipofectamine 2000 (Invitrogen) with 1:0.5–1 plasmid/lipid ratio. Cells were transfected with a pBK-CMV expression vector containing a rat recombinant GABAAR α, β or γ subunits. Co-transections were done with a plasmid ratio of 1:1 αβ and 2:2:1 for αβγ subunit combinations, respectively. pcDNA3.1-GFP was also co-transfected along with GABAAR subunits as a transfected marker in order to facilitate the visualization of the transfected cells during electrophysiological experiments. Cells were re-plated on glass coverslips after 15–20 h transfection and were cultured for an additional 15–24 h before whole-cell patch-clamp recordings.
(§3) Whole-cell patch-clamp recordings were performed under voltage-clamp mode using an Axopatch 200B or 1D patch-clamp amplifier (Molecular Devices) on HEK293 cells and cultured neurons. Whole-cell currents were recorded at a holding potential of −60 mV, and signals were filtered at 2 kHz, digitized at 10 kHz (Digidata 1322 A). Recording pipettes (3–5 MΩ) were filled with the intracellular solution that contained (mM): CsCl 140, HEPES 10, Mg-ATP 4, QX-314 5, pH 7.20; osmolarity, 290–295 mOsm. BAPTA (10 mM) was added in the intracellular solution. The coverslips were continuously superfused with the extracellular solution containing (mM): NaCl 140, KCl 5.4, HEPES 10, MgCl2 1.0, CaCl2 1.3, glucose 20, pH 7.4; osmolarity, 305–315 mOsm. […] Dose–response curves were created by fitting data to Hill equation: I = Imax/[1 + (EC50/[A])^n], where I is the current, Imax is the maximum current, [A] is a given concentration of agonist, n is the Hill coefficient. […] All experiments were performed at room temperature.
For orientation: In patch-clamp work, channel activity is measured electrically.

The target of experiment [2] is T2, rat α1β2γ2 GABAARs (Rattus norvegicus, UniProt P62813+P63138).
T2 construct: expressed in transfected cells; host or cells: HEK293
The experiment is described as follows: Whole-cell patch clamp of GABA-evoked currents, HEK293 cells expressing wild-type α1β2γ2. The class given is cell-based. The method, then: as §1, §2, §3

Experiment [3] deals with GABAAR-mediated currents, WT mice. The experiment is described as follows: Whole-cell recording of CA1 neurons, hippocampal slices of WT mice. Particulars: AP5 50 µM. It counts as cell-based, mouse. On the procedure: (§4) We next determined if glutamate-mediated allosteric potentiation of GABAAR function was impaired in hippocampal slices acutely prepared from postnatal 90-day-old KI mice. Whole-cell recordings of CA1 neurons were performed under voltage clamp configuration at a holding potential of −60 mV.
(§5) Mice were deeply anesthetized with urethane (1.5 g/kg, i.p.) and transcardially perfused with ice cold sucrose hypertonic cutting solution (in mM: KCl 3.0, NaH2PO4.H2O 1.25, NaHCO3 26, Na-vitamin C 0.4, Na-lactate 2.0, Na-pyruvate 2.0, D-glucose 10.0, Sucrose 220, CaCl2 0.1, MgCl2 2, MgSO4 4.0, pH 7.4, 290–300 mOsm/l) prior to decapitation as described previously.[47] After decapitation, the brain was rapidly removed and transferred to the ice cold cutting solution bubbled with 95% O2 and 5% CO2, and acute coronal brain slices (400 μm) were prepared on a Leica vibratome (VT1200S, Germany). All brain slices were placed into a standard artificial cerebral spinal fluid (ACSF) (in mM: NaCl 124, KCl 2.8, NaH2PO4.H2O 1.25, NaHCO3 26, Na-vitamin C 0.4, Na-lactate 2.0, Na-pyruvate 2.0, D-glucose 10.0, CaCl2 2, MgSO4 1.2, pH 7.4, 290–300 mOsm/l) incubated at 35 °C for 2 h prior to recording. Field excitatory postsynaptic potential (fEPSP) recordings were performed under current-clamp mode using HEKA EPC10 patch-clamp amplifier (HEKA Electronic, Lambrecht/Pfalz, Germany). […]

The target in experiment [4] is T3, α1β2 GABAARs (Rattus norvegicus, UniProt P62813+P63138).
T3 construct: expressed in transfected cells; host or cells: HEK293
In words: [3H]glutamate binding assay, plasma membranes of HEK293 cells overexpressing α1 and β2. The method, then:
For membrane preparation, transfected or non-transfected HEK293 cells were washed twice with cold PBS and harvested by scraping into 5 ml cold PBS. Cells were then centrifuged at 1200 × g for 12 min at 4 °C and medium was removed. The washing procedure was repeated twice. Then the cell pellet was re-suspended into 1 ml of 50 mM Tris-HCl buffer (pH 7.4, with protease inhibitor) and homogenized using syringes with 18-G, 21-G and 23-G needles.
To separate the membrane, the homogenate were centrifuged for 20 min at 20,000 × g at 4 °C. Then the pellet was re-suspended into 1 ml of 50 mM Tris-HCl buffer, pH 7.4 and centrifuged again. After repeating this procedure for one more time, the pellet was re-suspended into 1 ml of 50 mM Tris-HCl buffer, pH 7.4 and the protein concentration was measured.
To conduct the binding assay, 100 µg membrane enriched preparation was incubated with 40 nM [3H]-Glutamate in a total volume of 0.5 ml in 50 mM Tris-HCl buffer, pH 7.4 for 1 h on ice. […] Then the reaction was terminated by quickly filtering the solution on Whatman filter paper and washing by 3.5 ml Tris-HCl buffer. Radioactivity was measured in a Beckman liquid scintillation counter.

In experiment [5] the target is T4, GABAAR-mediated currents, β2E181G KI mice (Mus musculus, UniProt P63137, E206G).
T4 construct: from tissue; host or cells: acute hippocampal slices of homozygous β2E181G knock-in mice (C57BL/6J), CA1 neurons
The experiment is described as follows: Whole-cell recording of CA1 neurons, hippocampal slices of homozygous β2E181G KI mice. The class given is cell-based. Particulars: AP5 50 µM; homozygous KI slices. The method, then: as §4, §5

Experiment [6] relates to native GABAARs. In words: GABA-evoked whole-cell currents in cultured hippocampal neurons. The class given is cell-based, rat. The method, then:
(§6) Cultured hippocampal neurons were prepared from the brains of D18 fetal Wister rats. Tissues were digested with a 0.25% trypsin solution (Invitrogen) for 25 min at 37 °C, and then mechanically dissociated using a fire-polished Pasteur pipette. Next, the cell suspension was centrifuged at 2500 × g for 50 s and the cell pellets were resuspended in DMEM containing 10% Fetal Bovine Serum (FBS; Sigma-Aldrich). Cells were seeded on poly-D-lysine-coated 24-well coverslips at a density of 2.5 × 10^5 cells/well. Cultures were maintained in a humidified incubator with 5% CO2 at 37 °C. After 24 h, plating medium was changed to Neurobasal medium supplemented with B-27 supplement and L-glutamine, and the media changed twice weekly thereafter. Cultured neurons were used for electrophysiological recordings between 10–14 days after plating.
as §3

The test system of experiment [7] is postsynaptic GABAARs. The experiment is described as follows: mIPSCs in cultured hippocampal neurons. It counts as cell-based, rat. The settings on record: AP5 200 μM; TTX 0.5 μM, CNQX 10 μM. The method, then:
(§7) GABAAR-mediated inhibitory processes in the CNS include phasic and tonic inhibitions. The phasic inhibition is primarily mediated by the activation of postsynaptic GABAARs and can be evaluated by recording miniature inhibitory postsynaptic currents (mIPSCs; Fig. 2c).
as §6, with “Cultured neurons were used for electrophysiological recordings between 10–14 days after plating.” left out
(§8) Whole-cell patch-clamp recordings were performed under voltage-clamp mode using an Axopatch 200B or 1D patch-clamp amplifier (Molecular Devices) on HEK293 cells and cultured neurons. Whole-cell currents were recorded at a holding potential of −60 mV, and signals were filtered at 2 kHz, digitized at 10 kHz (Digidata 1322 A). […]

For experiment [8], the system named is extrasynaptic GABAARs. In words: GABAAR-mediated tonic currents in cultured hippocampal neurons. It counts as cell-based, rat. Particulars: prior addition of AP5 200 μM; bicuculline 10 μM. The method, then: as §7
as §6, with “Cultured neurons were used for electrophysiological recordings between 10–14 days after plating.” left out
as §8

Experiment [9] relates to NMDA receptors. The experiment is described as follows: NMDA receptor blockade in cultured hippocampal neurons. The class given is cell-based, rat. The settings on record: MK-801 10 μM co-applied with NMDA 50 μM through the bath for 3 min.
Experiment [10] can be described thus: Kainic acid-induced seizure. The class given is in vivo, mouse. Particulars: 20 mg/kg i.p. The method, then: To test the allosteric potentiation of GABAARs by presynaptically released glutamate under certain physiological conditions, we delivered five trains of four pulses of theta-burst stimulation to increase endogenous glutamate released from the presynaptic glutamatergic terminals, and compared its effect on the pharmacologically isolated eIPSCs (following blockade of both AMPAR and NMDAR-mediated EPSCs) in WT and KI mice.
Kainic acid (KA) was dissolved in sterile saline at the concentration of 20 mg/ml. KA (20 mg/kg, i.p.) or same volume of saline as vehicle control was administered by intraperitoneal injection to induce seizures. Diazepam (20 mg/kg, s.c., obtained from Children’s Hospital of Chongqing Medical University) was injected 30 min before the injection of KA. […] All experiments were performed in accordance with approved institutional animal care guidelines.

Read-outs that look alike come from different tables or passages of the source.

Broadly, the EC50 is the concentration at which the effect is half-maximal.

For `Cc1onc(O)c1CC(N)C(=O)O` (stereo not drawn) [AMPA, α-amino-3-hydroxyl-5-methyl-4-isoxazole-propionate], in [1], the “GABA-mediated currents in presence of ligand, compared with currents induced by GABA alone” value is listed as 339.2 ± 38.0%. Further, the “GABA currents in presence of ligand, compared with GABA alone” value (from here on “GABA currents … compared with GABA alone”) in experiment [2] came to 165.8 ± 6.2%.

In the case of `N[C@H](C(=O)O)[C@@H](OCc1ccccc1)C(=O)O` [TBOA, threo-β-Benzyloxyaspartic acid], the “GABA-mediated currents in presence of ligand, compared with currents induced by GABA alone” value in [1] (ligand 100 μM, GABA 1 μM) amounted to 202.8 ± 18.3%. In addition, the “GABA currents … compared with GABA alone” value in [2] (ligand 100 μM each, GABA 1 μM) was determined as 159.9 ± 7.8%.

With `N[C@H](CCCP(=O)(O)O)C(=O)O` [AP5, D-2-amino-5-phosphonovaleric acid], the “GABA-evoked currents relative to baseline” value in experiment [3] is recorded as 193.5 ± 27.0%; in experiment [5], 104.6 ± 12.7%. Also, the “[3H]glutamate binding activity in presence of competitor” value in [4] (40 nM [3H]glutamate + 0.4 mM non-radiolabeled competitor) worked out at 240.8 ± 36.8 CPM. The “GABA-mediated currents in presence of ligand, compared with currents induced by GABA alone” value in experiment [1] (ligand 100 μM, GABA 1 μM) is 254.9 ± 33.0%. The “amplitude of GABA currents, % of the control” value in experiment [6] (AP5 100 μM bath, GABA 0.5 μM, TTX and CNQX present) is 157.7 ± 9.1%. The “reversal potential of GABA currents (I-V curve)” value in [6] (AP5 200 µM, GABA 10 μM) is “without altering the reversal potential”. In addition, in [6] (after MK-801 10 μM + NMDA 50 μM for 3 min, AP5 200 μM, GABA 10 μM (Fig. S1a)), the “potentiation of GABA currents after NMDA receptor blockade” value was “reversibly potentiated GABA currents”. Further, the concentration for a half-maximal effect (EC50) in [6] (read-out: EC50 of AP5 enhancement of GABA currents, GABA 0.5 μM) came to 150 ± 27 µM. Moreover, the mIPSC amplitude in [7] came out at 36.6 ± 3.6 pA. The same compound showed a mIPSC frequency in experiment [7] of 0.90 ± 0.29 Hz. Further, in experiment [2] (ligand 100 μM each, GABA 1 μM), the “GABA currents … compared with GABA alone” value was 173.3 ± 3.7%. Besides, the “tonic current revealed by bicuculline” value in [8] was 17.28 ± 2.80 pA.

For `C[C@]12N[C@H](Cc3ccccc31)c1ccccc12` [MK-801], in [1] (MK-801, concentration not given, data not shown), the “effect on GABA currents” value was “did not affect GABA currents”. The NMDA receptor blockade entry in experiment [9] is “complete and long-lasting NMDA receptor blockade”.

As for `C=C(C)[C@H]1CN[C@H](C(=O)O)[C@H]1CC(=O)O` [kainic acid], in [1], the “GABA-mediated currents in presence of ligand, compared with currents induced by GABA alone” value turned out to be 388.2 ± 61.0%. Moreover, the results for the “latency of kainic acid-induced seizure activity” value in experiment [10] (WT mice) and in [10] (β2E181G KI mice) were 189.6 ± 15.2 s and 161.0 ± 4.0 s, respectively. Also, the “GABA currents … compared with GABA alone” value in [2] was 188.7 ± 5.5%.

[^3H]glutamate: the “[3H]glutamate binding activity” value in experiment [4] (40 nM [3H]glutamate only, 100 µg membrane, 1 h on ice) came out at 938.2 ± 82.7 CPM.

For `N#Cc1cc2[nH]c(=O)c(=O)[nH]c2cc1[N+](=O)[O-]` [CNQX, 6-cyano-7-nitroquinoxaline-2,3-dione], the “GABA evoked currents in presence of ligand, compared with GABA alone” value in experiment [1] (CNQX 10 μM, GABA 1 μM) worked out at 107.3 ± 6.5%. The “effect on GABA-evoked currents” value in experiment [1] (CNQX 1 mM, data not shown) is listed as “did not affect GABA-evoked currents”. In experiment [2] (CNQX, concentration not given, GABA 1 μM), the “GABA currents … compared with GABA alone” value stood at 105.6 ± 6.5%.

Take `CN[C@H](CC(=O)O)C(=O)O` [NMDA, N-methyl-D-aspartate]: in experiment [1], the “GABA-mediated currents in presence of ligand, compared with currents induced by GABA alone” value was 267.6%. Moreover, the “GABA currents … compared with GABA alone” value in experiment [2] turned out to be 171.7 ± 5.4%.
